Experimental data as given in paper PMC4157028, “HPTLC Analysis, Antioxidant and Antigout Activity of Indian Plants” (Iranian Journal of Pharmaceutical Research : IJPR, 2014).
≈ marks a conversion by molar mass, not a printed value.

Molecular target: T1, cow milk xanthine oxidase
T1 construct: gene XDH; commercial enzyme from Himedia Laboratories; abstract says cow milk, reagent list says source: microorganisms
Assay: spectrophotometric uric acid formation at […] nm
Type: biochemical
Settings: xanthine substrate (150 mM stock as printed, 2 mL added), phosphate buffer pH 7.5, 25 °C, 15 min preincubation, 30 min reaction

IC50: 6.75 µg/mL (≈ 49.6 µM)
Structure (SMILES): O=c1[nH]cnc2[nH]ncc12 [Allopurinol]
